# Values of other authors in US7365075B2, “Aryl sulfonamide compounds and uses related thereto” (Amgen Inc., priority 2003, dated 2008).
# Experiments:
# [1] = system: normal patients
# [2] = system: humans
# [3] = system: bone nodule formation
compound,measurement,setting,value
CC1(C)[C@@H](OC(=O)CCC(=O)O)CC[C@]2(C)[C@H]3C(=O)C=C4[C@@H]5C[C@@](C)(C(=O)O)CC[C@]5(C)CC[C@@]4(C)[C@]3(C)CC[C@@H]12 [carbenoxolone],reduction of the intraocular pressure,[1],20%
same,hepatic insulin sensitivity,[2],improved hepatic insulin sensitivity
same,detrimental effects of glucocorticoids on bone nodule formation,[3],lessened
